Laboratory results from PubChem BioAssay AID2060503 (Molecular Pharmacology Branch, DTP, NCI, 2025).
Several values for one entry are separate records, joined by “and”; a condition that tells them apart may be missing. Equal entries are not always repeated.

Test system: 817829-284-R-J1-PDC complex spheroids, viability
Assay: Anticancer human tumor 817829-284-R-J1-PDC patient-derived colon adenocarcinoma cell line growth inhibition [GQUAD]
Settings: for viability, T/C: stronger effect = lower value
From the text: DNA G-quadruplex Stabilizer Agents in Combinations in Complex Spheroids
A high-throughput screen of multi-cell type tumor spheroids was designed to identify active combinations of DNA G-quadruplex stabilizer agents and targeted small molecules. Complex spheroids include a stromal component modeled by human endothelial cells (HUVEC) and fibroblasts modeled by human mesenchymal stem cells (MSCs). The concentration ranges selected for each drug and investigational agent were based upon clinically achievable concentrations if the clinical Cmax of the agent was known.
Compounds. The drugs and investigational agents: pidnarulex (CX-5461; NSC782164), APTO-253 (NSC789042), BRACO-19 (NSC847499), peposertib (NSC802822), ceralasertib (NSC780249), elimusertib (NSC800525), camonsertib (NSC841442), AZD-1390 (NSC803789), olaparib (NSC753686), talazoparib (NSC767125), ART-558 (NSC835418), sotorasib (NSC818433), MRTX-1133 (NSC836407), SN-38 (NSC673596), topotecan (NSC609699), etoposide (NSC141540), doxorubicin (NSC123127), gemcitabine (NSC613327), 5-fluorouracil (NSC19893), paclitaxel (NSC125973), vemurafenib (NSC761431), panobinostat (NSC761190), R-306465 (JNJ-16241199; NSC773264), adavosertib (NSC754352), TP-3654 (NSC805149), carboplatin (NSC241240), KSQ-4279 (NSC840948), and staurosporine (NSC755774) were obtained from the National Cancer Institute (NCI) Developmental Therapeutics Program Chemical Repository (34). The FDA-approved anticancer drug set is available from the NCI Developmental Therapeutics Program. […] The stock solutions were prepared in dimethyl sulfoxide (DMSO, Sigma-Aldrich, St. Louis, MO, cat. D2650) at 800-fold the tested concentration and stored at -70 degrees C prior to their use. All drugs and investigational agents were tested over a range starting from a high concentration at or near the clinical Cmax and decreasing in half-log increments. If the clinical Cmax for an agent had not been determined, the highest concentration tested was 10 microM.
2.3 Cell Culture. All cells were maintained in an incubator at 37 degrees C and 5% CO2 with 95% humidity. The PDC lines were cultured according to standard operating procedures established by the NCI PDMR. All PDCs were thawed and cultured in Matrigel-coated flasks prepared with a working solution of 1X Ham's F-12 nutrient mix, without supplementation (Invitrogen, cat. 11765054), 100 U/mL penicillin-streptomycin (Invitrogen, cat. 15140122), and 2.5% Matrigel (Corning Inc., cat. 354248) for the first three passages. The 857933-349-R-J2-PDC line was cultured in 6C/Colon 1B media, which includes advanced DMEM/F-12 (Thermo Fisher Scientific, cat. 12634028), 10 mM HEPES (Thermo Fisher Scientific, cat. 15630080), 1X GlutaMAX supplement (Thermo Fisher Scientific, cat. 35050061), 0.1 mg/mL primocin (InvivoGen, cat. ant-pm-2), 10% defined fetal bovine serum, heat inactivated (HyClone Laboratories Inc., cat. SH30070.03HI), 50% L-WRN conditioned media (ATCC, cat. CRL-3276), 1.25 mM N-Acetyl-L-cysteine (Sigma-Aldrich, cat. A9165), 10 mM nicotinamide (Sigma-Aldrich, cat. N0636), 1X B-27 supplement (Thermo Fisher Scientific, cat. 17504044), 1X N-2 supplement (Thermo Fisher Scientific, cat. 17502048), 10 microM Y-27632 dihydrochloride (Tocris Bioscience, cat. 1254), and 50 ng/mL human EGF recombinant protein (Thermo Fisher Scientific, cat. PHG0311). The 485176-168-R4-J1-PDC line was cultured in Panc media, which includes all 6C/Colon 1B media components plus 100 ng/mL human FGF-10 (Thermo Fisher Scientific, cat. 100-26), 500 nM SB-431542 (Selleckchem, cat. S1067), and gastrin (Tocris, cat. 3006).
[…]
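Also: spheroids exposed to agents for 7 days before readout.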
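For viability, T/C in this document: percent viability relative to DMSO vehicle control taken as 100%.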

Row | SMILES | IC50 (curve of compound) | IC50 (compound alone, run of 02/26/2024) [nM] | viability, T/C (compound 0.0316 µM) | viability, T/C (compound 0.1 µM) | viability, T/C (compound 0.316 µM) | viability, T/C (compound 1 µM) | viability, T/C (compound 3.16 µM) | viability, T/C (compound 10 µM) | viability, T/C (compound 0.000999 µM) | viability, T/C (compound 0.00316 µM) | viability, T/C (compound 0.00999 µM) | viability, T/C (compound 0.0999 µM)
1 | C#Cc1c(F)ccc2cc(O)cc(-c3ncc4c(N5CC6CCC(C5)N6)nc(OCC56CCCN5CC(F)C6)nc4c3F)c12 (stereo unspecified) | > 10000 nM | – | 103% and 97.4% and 94.3% | 88.4% and 96.9% and 109% | 99.2% and 102% and 103% | 84.3% and 102% and 93.9% | 110% and 95.8% and 102% | 114% and 104% and 131% | – | – | – | –
2 | CC(=O)O[C@H]1C(=O)[C@@]2(C)[C@H]([C@H](OC(=O)c3ccccc3)[C@]3(O)C[C@H](OC(=O)[C@H](O)[C@@H](NC(=O)c4ccccc4)c4ccccc4)C(C)=C1C3(C)C)[C@]1(OC(C)=O)CO[C@@H]1C[C@@H]2O | < 31.6 nM | – | 5.56% and 11.2% and 8.51% | 5.44% and 6.01% and 3.69% | 5.01% and 4.83% and 4.1% | 4.55% and 4.35% and 3.93% | 3.56% and 3.34% and 3.72% | 5.03% and 4.92% and 4.14% | – | – | – | –
3 | CC1COCCN1c1cc(-c2ccnn2C)c2ccnc(-c3ccn[nH]3)c2n1 (stereo unspecified) | 46.4 nM and < 31.6 nM and 44.4 nM | – | 67.1% and 49.9% and 63.2% | 15.9% and 20.1% and 19.1% | 8.87% and 9.11% and 9.13% | 5.41% and 7.67% and 7.19% | 5.54% and 7.47% and 5.88% | 4.28% and 5.96% and 5.46% | – | – | – | –
4 | CC1COCCN1c1cc(C2(O)CC3CCC(C2)O3)c2cnn(-c3ccn[nH]3)c2n1 (stereo unspecified) | < 31.6 nM | – | 39.5% and 42.2% and 31.3% | 10.2% and 9.96% and 13.3% | 7.94% and 8.95% | 6.19% and 4.8% and 7.29% | 5.19% and 5.01% and 5.9% | 2.86% and 3.51% and 4.63% | – | – | – | –
5 | CC1COCCN1c1cc(C2(S(C)(=N)=O)CC2)nc(-c2ccnc3[nH]ccc23)n1 (stereo unspecified) | 649 nM and 654 nM and 697 nM | – | 112% and 93.9% and 91.7% | 89.1% and 102% and 105% | 93.1% and 88.9% and 90% | 24.1% and 27.1% and 31.6% | 11% and 9.68% and 11.2% | 8.31% and 9.22% and 9.36% | – | – | – | –
6 | CC[C@@]1(O)C(=O)OCc2c1cc1n(c2=O)Cc2cc3c(CN(C)C)c(O)ccc3nc2-1 | 37.6 nM and 59.5 nM and 30.1 nM | – | 53.6% and 60.3% and 47.5% | – | 26.1% and 37.7% and 29.7% | – | – | – | 107% and 116% and 105% | 94.3% (2×) and 87.9% | 107% (2×) and 109% | 33.9% and 45.5% and 27.7%
7 | CCc1c2c(nc3ccc(O)cc13)-c1cc3c(c(=O)n1C2)COC(=O)[C@]3(O)CC | 1.58 nM and 2.31 nM and 1.63 nM | – | 15.5% and 21.2% and 14.7% | – | 5.27% and 4.91% and 3.96% | – | – | – | 63% and 65.3% and 63.2% | 26.9% and 40% and 26.7% | 24.7% and 33% and 30.2% | 9.08% and 10.2% and 7.65%
8 | CN(C)c1ccc(Nc2c3ccc(NC(=O)CCN4CCCC4)cc3nc3cc(NC(=O)CCN4CCCC4)ccc23)cc1 | – | > 10000 | 102% [middle of 12 runs] | 99.2% [middle of 12 runs] | 97.7% [middle of 12 runs] | 102% [middle of 12 runs] | 100% [middle of 12 runs] | 93.7% [middle of 12 runs] | – | – | – | –

Continued, in another order:

Row | IC50 (curve of compound) | IC50 (compound alone, run of 02/26/2024) [nM] | SMILES | viability, T/C (compound 0.0316 µM) | viability, T/C (compound 0.1 µM) | viability, T/C (compound 0.316 µM) | viability, T/C (compound 1 µM) | viability, T/C (compound 3.16 µM) | viability, T/C (compound 10 µM) | viability, T/C (compound 0.000999 µM) | viability, T/C (compound 0.00316 µM) | viability, T/C (compound 0.00999 µM) | viability, T/C (compound 0.0999 µM)
9 | > 10000 nM | – | C=CC(=O)N1CCN(c2nc(=O)n(-c3c(C)ccnc3C(C)C)c3nc(-c4c(O)cccc4F)c(F)cc23)C(C)C1 (stereo unspecified) | 94.6% and 98.7% and 113% | 87.2% and 97.6% and 96.2% | 96% and 99.3% and 113% | 84.4% and 93.2% and 89.2% | 108% and 102% and 112% | 98.3% and 81.2% and 102% | – | – | – | –
10 | 245 nM and 237 nM and 232 nM | – | C=CCn1c(=O)c2cnc(Nc3ccc(N4CCN(C)CC4)cc3)nc2n1-c1cccc(C(C)(C)O)n1 | 97.1% and 105% and 99.8% | 95.4% and 102% and 93.9% | 37.1% and 32.5% and 33.8% | 7.67% and 9.37% and 5.53% | 6.89% and 6.69% and 4.84% | 5.09% and 5.85% and 4.19% | – | – | – | –
11 | > 10000 nM and 1780 nM | – | CC(C)(O)C1CCC(Nc2ccc3ncc(-c4cccc(C(F)(F)F)c4)n3n2)CC1 (stereo unspecified) | 99.8% and 97.4% and 104% | 95.4% and 98.8% and 80.9% | 106% and 104% and 101% | 68.3% and 84.7% and 79% | 50.6% and 46.8% and 19.7% | 67.2% and 53% and 22.6% | – | – | – | –
12 | > 10000 nM | – | CC(C)n1c(=O)n(C)c2cnc3cc(F)c(-c4ccc(OCCCN5CCCCC5)nc4)cc3c21 | 106% and 107% and 100% | 101% and 102% and 97.5% | 95.1% and 105% and 102% | 89.8% and 100% and 89.2% | 104% and 113% and 101% | 107% and 103% and 60.3% | – | – | – | –
13 | 5280 nM and 6050 nM and 4910 nM | – | CCCS(=O)(=O)Nc1ccc(F)c(C(=O)c2c[nH]c3ncc(-c4ccc(Cl)cc4)cc23)c1F | 117% and 113% and 109% | 106% and 102% and 81.6% | 110% and 103% (2×) | 92.1% and 92.8% and 79.2% | 75.5% and 88.9% and 75.2% | 21% and 22% and 16.1% | – | – | – | –
